Laboratory results from US20090105293A1, “USE OF THIENOPYRIDONE DERIVATIVES AS AMPK ACTIVATORS AND PHARMACEUTICAL COMPOSITIONS CONTAINING THEM” (priority 2005, published 2009).

Tests used:
[1] = test system: Human recombinant AMPK enzyme; experiment: AMPK screening assay, AlphaScreen technology; assay type: biochemical; conditions: 25 mM Tris/HCl buffer pH 7.5, 100 μM ATP, AMARAA peptide substrate, 30 min room temperature, activator concentration not given
Method: (§1) Human recombinant AMPK enzyme was expressed in E. Coli and was reactivated in vitro by LKB1 prior to enzyme activity determination.
(§2) AMPK enzyme activities were assayed by using 2 fluorescent based technologies (AlphaScreen/Delfia) and were carried out in microtiter plates (containing 25 mM Tris/HCl buffer, pH 7.5 with 100 μM ATP/50 mM Hepes buffer, pH 7.4 with 125 μM ATP respectively) in the presence of a synthetic peptide substrate (AMARAASAAALARRR, the “AMARAA” peptide) and activators in serial dilutions. Reactions were initiated by the addition of AMPK (50-100 ng). Following mixing, the plates were incubated for 30 min at room temperature. Enzyme activity was assayed by using an anti-phosphoserine antibody to measure the quantity of phosphate incorporated into the AMARAA. Activity is expressed in % of control (basal activity): […]

[2] = test system: Human recombinant AMPK enzyme; experiment: AMPK screening assay, Delfia technology; assay type: biochemical; conditions: 50 mM Hepes buffer pH 7.4, 125 μM ATP, AMARAA peptide substrate, 30 min room temperature, activator concentration not given
Method: as §1, §2

[3] = test system: ob/ob and db/db mice; conditions: 8 day administration; both ob/ob and db/db mice; cited from earlier work

α-Screen: AMPK activity expressed in % of control (basal activity) [1] | Delfia: AMPK activity expressed in % of control (basal activity) [2] | SMILES | reduction of blood glucose [3]
131 % of control | 169 % of control | CC(C)c1csc2[nH]c(=O)c(-c3ccccc3)c(O)c12 [Compound 207, 4-Hydroxy-3-isopropyl-5-phenyl-7H-thieno[2,3-b]pyridin-6-one] | 
181 % of control | 233 % of control | CC(C)c1c(Cl)sc2[nH]c(=O)c(-c3ccccc3)c(O)c12 [Compound 204, 2-Chloro-4-hydroxy-3-isopropyl-5-phenyl-7H-thieno[2,3-b]pyridin-6-one] | 
154 % of control | 232 % of control | Cc1sc2[nH]c(=O)c(-c3ccccc3)c(O)c2c1C [Compound 200, 4-Hydroxy-2,3-dimethyl-5-phenyl-7H-thieno[2,3-b]pyridin-6-one] | 
166 % of control | 151 % of control | O=c1[nH]c2sc(Cl)c(C3CC3)c2c(O)c1-c1cccc(Oc2ccccc2)c1 [Compound 205, 2-chloro-3-cyclopropyl-4-hydroxy-5-(3-phenoxy-phenyl)-7H-thieno[2,3-b]pyridine-6-one] | 
 |  | NC(=O)c1ncn([C@@H]2O[C@H](CO)[C@@H](O)[C@H]2O)c1N [AICAR] | 35%
156 % of control | 201 % of control | CCC(C)c1csc2[nH]c(=O)c(-c3ccccc3)c(O)c12 (centres unmarked) [Compound 209] | 
176 % of control | 286 % of control | O=c1[nH]c2sc3c(c2c(O)c1-c1ccccc1)CCCC3 [Compound 210, 4-Hydroxy-3-phenyl-5,6,7,8-tetrahydro-1-benzothieno[2,3-b]pyridin-2(1H)-one] | 
269 % of control | 164 % of control | CCC(C)c1c(Cl)sc2[nH]c(=O)c(-c3ccccc3)c(O)c12 (centres unmarked) [Compound 206] | 
286 % of control | 271 % of control | O=c1[nH]c2sc(Br)cc2c(O)c1-c1ccccc1 [Compound 203, 2-Bromo-4-hydroxy-5-phenyl-7H-thieno[2,3-b]pyridin-6-one] | 
154 % of control | 163 % of control | O=c1[nH]c2scc(C3CC3)c2c(O)c1-c1ccccc1 [Compound 208, 3-Cyclopropyl-4-hydroxy-5-phenyl-7H-thieno[2,3-b]pyridin-6-one] | 
150 % of control | 219 % of control | CCc1cc2c(O)c(-c3ccccc3)c(=O)[nH]c2s1 [Compound 201, 2-Ethyl-4-hydroxy-5-phenyl-7H-thieno[2,3-b]pyridin-6-one] | 
322 % of control | 313 % of control | Cc1c(Br)sc2[nH]c(=O)c(-c3ccccc3)c(O)c12 [Compound 202, 2-Bromo-4-hydroxy-3-methyl-5-phenyl-7H-thieno[2,3-b]pyridin-6-one] | 
